Results published in ChEMBL document CHEMBL1126239, “Quinazoline antifolate thymidylate synthase inhibitors: difluoro-substituted benzene ring analogues” (J Med Chem, 1992).

Assays:
L1210 [1] = assay: The compound was tested in vitro for the inhibition of L1210 cell growth in culture; format: functional, cell-based; details: Mus musculus
L1210 [2] = assay: The compound was tested in vitro for the inhibition of L1210 cell growth in the presence of thymidine; format: functional, Mus musculus; set-up: concentration or dose not given beside the values
Thymidylate synthase = Thymidylate synthase (Mus musculus, UniProt P07607); assay: Inhibition of thymidylate synthase from L1210 cells; format: cell-based
Thymidylate synthase, sequence (P07607 whole entry): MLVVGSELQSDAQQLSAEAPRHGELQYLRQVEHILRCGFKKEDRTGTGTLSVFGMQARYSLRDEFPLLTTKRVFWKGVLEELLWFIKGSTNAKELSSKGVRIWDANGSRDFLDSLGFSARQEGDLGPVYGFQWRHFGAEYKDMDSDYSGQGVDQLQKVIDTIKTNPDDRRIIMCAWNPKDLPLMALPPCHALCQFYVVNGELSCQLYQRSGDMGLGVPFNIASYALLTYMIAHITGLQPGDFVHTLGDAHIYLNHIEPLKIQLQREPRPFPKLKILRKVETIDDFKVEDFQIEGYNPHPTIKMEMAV

| Compound | IC50 (L1210 [1]) | Control (L1210 [2]) | IC50 (Thymidylate synthase) |
| --- | --- | --- | --- |
| C#CCN(Cc1ccc2nc(C)nc(O)c2c1)c1cc(F)c(C(=O)N[C@@H](CCC(=O)O)C(=O)O)c(F)c1 | 62 nM | 93% | 80 nM |
| C#CCN(Cc1ccc2nc(C)nc(O)c2c1)c1cc(F)c(C(=O)N[C@@H](CCC(=O)O)C(=O)O)cc1F | 27 nM | 95% | 600 nM |
| Cc1nc(O)c2cc(CN(C)c3ccc(C(=O)N[C@@H](CCC(=O)O)C(=O)O)c(F)c3F)ccc2n1 | 140 nM | – | 1000 nM |
| Cc1nc(O)c2cc(CN(C)c3cc(F)c(C(=O)N[C@@H](CCC(=O)O)C(=O)O)c(F)c3)ccc2n1 | 50 nM | 90% | 950 nM |
| C#CCN(Cc1ccc2nc(C)nc(O)c2c1)c1ccc(C(=O)N[C@@H](CCC(=O)O)C(=O)O)c(F)c1F | 280 nM | 94% | 1700 nM |
| Cc1nc(O)c2cc(CN(C)c3cc(F)c(C(=O)N[C@@H](CCC(=O)O)C(=O)O)cc3F)ccc2n1 | 75 nM | 94% | 1100 nM |
